Source: patent US5665882A, “Pyridyl ethylation of lactams” (Merck & Co., Inc., priority 1996, dated 1997)
pIC50: −log10 of the molar value.

System: ADP-stimulated platelets
Test: ADP-stimulated platelet aggregation assay (gel-filtered human platelets)
Assay type: cell-based
Details: inhibition of ADP-stimulated platelet aggregation by 50% relative to control; gel-filtered human platelets 2×10^8 per ml, fibrinogen 100 ug/ml, Ca^2+ 1 mM, 10 mM ADP, 37° C.
Excerpt: The activity of these fibrinogen receptor antagonists is illustrated below. One test used to evaluate fibrinogen receptor antagonist activity is based on evaluation of inhibition of ADP-stimulated platelets. Aggregation requires that fibrinogen bind to and occupy the platelet fibrinogen receptor site. Inhibitors of fibrinogen binding inhibit aggregation. In the ADP-stimulated platelet aggregation assay used to determine inhibition associated with these fibrinogen receptor antagonists, human platelets are isolated from fresh blood, collected into acid citrate/dextrose by differential centrifugation followed by gel filtration on Sepharose 2B in divalent ion-free Tyrode's buffer (pH 7.4) containing 2% bovine serum albumin.
Platelet aggregation is measured at 37° C. in a Chronolog aggregometer. The reaction mixture contains gel-filtered human platelets (2×10^8 per ml), fibrinogen (100 micrograms per ml (ug/ml)), Ca^2+ (1 mM), and the fibrinogen receptor antagonists tested. The aggregation is initiated by adding 10 mM ADP 1 minute after the other components are added. The reaction is then allowed to proceed for at least 2 minutes. The extent of inhibition of aggregation is expressed as the percentage of the rate of aggregation observed in the absence of inhibitor. The IC50 is the dose of a particular compound inhibiting aggregation by 50% relative to a control lacking the compound. […]

pIC50: 4.00
Structure (SMILES): C[C@H](CC(=O)O)NC(=O)CN1CCC[C@@H](CCC2CCNCC2)C1=O
